According to ChEMBL document CHEMBL1201862, “PubChem BioAssay data set” (2004):
Several values for one entry are separate records, joined by “and”; a condition that tells them apart may be missing. Equal values may be shown once.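 All cell lines were grown in 96-well plates and treated with compound for 48 hours. Abbreviation: GI50, concentration required for 50% inhibition of growth.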 Activity calls are given as the source filed them. Rule as the data show it: active = GI50 up to about 1.1 µM and inactive = higher.

Assays:
Test in all cases: growth of human tumour cells (NCI), 48 h
LOX IMVI = test system: LOX IMVI
DMS-273 = test system: DMS-273
IGROV-1 = test system: IGROV-1
NCI-H460 = test system: NCI-H460
SW-620 = test system: SW-620
Malme-3M = test system: Malme-3M
ACHN = test system: ACHN
KM12 = test system: KM12
NCI-H226 = test system: NCI-H226
SF-268 = test system: SF-268
UACC-257 = test system: UACC-257
SF-295 = test system: SF-295
SNB-19 = test system: SNB-19
RXF 631 = test system: RXF 631
OVCAR-8 = test system: OVCAR-8
786-0 = test system: 786-0
UACC-62 = test system: UACC-62
EKVX = test system: EKVX
COLO 205 = test system: COLO 205
HCT-116 = test system: HCT-116
M19-MEL = test system: M19-MEL
LXFL 529 = test system: LXFL 529
SN12C = test system: SN12C
OVCAR-4 = test system: OVCAR-4
TK-10 = test system: TK-10
SK-OV-3 = test system: SK-OV-3
HCC 2998 = test system: HCC 2998
SK-MEL-28 = test system: SK-MEL-28
XF498 = test system: XF498
M14 = test system: M14
HOP-18 = test system: HOP-18
HT-29 = test system: HT-29
A549 = test system: A549
NCI-H23 = test system: NCI-H23
K562 = test system: K562
DLD-1 = test system: DLD-1
SK-MEL-5 = test system: SK-MEL-5
SNB-75 = test system: SNB-75
OVCAR-3 = test system: OVCAR-3
NCI-H522 = test system: NCI-H522
A498 = test system: A498
DMS-114 = test system: DMS-114
HL-60 = test system: HL-60
SNB-78 = test system: SNB-78
CAKI-1 = test system: CAKI-1
OVCAR-5 = test system: OVCAR-5
KM-20L2 = test system: KM-20L2
RXF 393 = test system: RXF 393
HOP-62 = test system: HOP-62
HOP-92 = test system: HOP-92
HCT-15 = test system: HCT-15
MOLT-4 = test system: MOLT-4
U-251 = test system: U-251
RPMI-8226 = test system: RPMI-8226
CCRF-CEM = test system: CCRF-CEM
SR = test system: SR
SK-MEL-2 = test system: SK-MEL-2
UO-31 = test system: UO-31
SF-539 = test system: SF-539

COC1OC(COC(C)=O)C(OC(C)=O)C(OC(C)=O)C1NC(=O)N(CCCl)N=O (centres undefined)
GI50 (LOX IMVI): 61.4 µM (inactive) and 47.3 µM (inactive) | GI50 (DMS-273): > 100 µM (inactive) | GI50 (IGROV-1): > 100 µM (inactive) | GI50 (NCI-H460): 63 µM (inactive) and 44.6 µM (inactive) | GI50 (SW-620): > 100 µM (inactive) | GI50 (Malme-3M): > 100 µM (inactive) | GI50 (ACHN): > 100 µM (inactive) | GI50 (KM12): > 100 µM (inactive) | GI50 (NCI-H226): > 100 µM (inactive) | GI50 (SF-268): 26.8 µM (inactive) and 20.3 µM (inactive) | GI50 (UACC-257): > 100 µM (inactive) | GI50 (SF-295): 39.1 µM (inactive) and 24.2 µM (inactive) | GI50 (SNB-19): > 100 µM (inactive) and 69.7 µM (inactive) | GI50 (RXF 631): > 100 µM (inactive) | GI50 (OVCAR-8): > 100 µM (inactive) | GI50 (786-0): 54.6 µM (inactive) and 63.4 µM (inactive) | GI50 (UACC-62): 26.2 µM (inactive) and 25.6 µM (inactive) | GI50 (EKVX): > 100 µM (inactive) | GI50 (COLO 205): > 100 µM (inactive) | GI50 (HCT-116): > 100 µM (inactive) | GI50 (M19-MEL): > 100 µM (inactive) | GI50 (LXFL 529): > 100 µM (inactive) | GI50 (SN12C): > 100 µM (inactive) | GI50 (OVCAR-4): > 100 µM (inactive) | GI50 (TK-10): > 100 µM (inactive) | GI50 (SK-OV-3): > 100 µM (inactive) | GI50 (HCC 2998): > 100 µM (inactive) | GI50 (SK-MEL-28): > 100 µM (inactive) | GI50 (XF498): > 100 µM (inactive) | GI50 (M14): > 100 µM (inactive) | GI50 (HOP-18): > 100 µM (inactive) | GI50 (HT-29): > 100 µM (inactive) | GI50 (A549): > 100 µM (inactive) and 82.4 µM (inactive) | GI50 (NCI-H23): > 100 µM (inactive) | GI50 (K562): 65 µM (inactive) | GI50 (DLD-1): > 100 µM (inactive) | GI50 (SK-MEL-5): > 100 µM (inactive) | GI50 (SNB-75): 47.1 µM (inactive) and 34.4 µM (inactive) | GI50 (OVCAR-3): > 100 µM (inactive) | GI50 (NCI-H522): 24.1 µM (inactive) and 45.9 µM (inactive) | GI50 (A498): > 100 µM (inactive) | GI50 (DMS-114): > 100 µM (inactive) | GI50 (HL-60): 30.8 µM (inactive) and 16.1 µM (inactive) | GI50 (SNB-78): > 100 µM (inactive) | GI50 (CAKI-1): > 100 µM (inactive) | GI50 (OVCAR-5): > 100 µM (inactive) | GI50 (KM-20L2): > 100 µM (inactive) | GI50 (RXF 393): > 100 µM (inactive)

COc1ccc(CC2NCCc3cc(OC)c(OC)cc32)cc1 (centres undefined)
GI50 (HOP-62): > 100 µM (inactive) | GI50 (LOX IMVI): > 100 µM (inactive) | GI50 (DMS-273): > 100 µM (inactive) | GI50 (HOP-92): 57.4 µM (inactive) | GI50 (IGROV-1): > 100 µM (inactive) | GI50 (NCI-H460): > 100 µM (inactive) | GI50 (SW-620): > 100 µM (inactive) | GI50 (Malme-3M): > 100 µM (inactive) | GI50 (ACHN): > 100 µM (inactive) | GI50 (KM12): > 100 µM (inactive) | GI50 (NCI-H226): > 100 µM (inactive) | GI50 (HCT-15): > 100 µM | GI50 (MOLT-4): > 100 µM (inactive) | GI50 (SF-268): > 100 µM (inactive) | GI50 (UACC-257): > 100 µM (inactive) | GI50 (U-251): > 100 µM (inactive) | GI50 (SF-295): > 100 µM (inactive) | GI50 (SNB-19): > 100 µM (inactive) | GI50 (RXF 631): > 100 µM (inactive) | GI50 (OVCAR-8): > 100 µM (inactive) | GI50 (786-0): > 100 µM (inactive) | GI50 (UACC-62): > 100 µM (inactive) | GI50 (RPMI-8226): > 100 µM (inactive) | GI50 (EKVX): > 100 µM (inactive) | GI50 (CCRF-CEM): > 100 µM (inactive) | GI50 (SR): > 100 µM (inactive) | GI50 (COLO 205): > 100 µM (inactive) | GI50 (HCT-116): > 100 µM (inactive) | GI50 (M19-MEL): > 100 µM (inactive) | GI50 (LXFL 529): > 100 µM (inactive) | GI50 (SN12C): > 100 µM (inactive) | GI50 (SK-MEL-2): > 100 µM (inactive) | GI50 (OVCAR-4): > 100 µM (inactive) | GI50 (TK-10): > 100 µM (inactive) | GI50 (SK-OV-3): > 100 µM (inactive) | GI50 (UO-31): > 85.3 µM (inactive) | GI50 (HCC 2998): > 100 µM (inactive) | GI50 (SK-MEL-28): > 100 µM (inactive) | GI50 (XF498): > 100 µM (inactive) | GI50 (M14): > 100 µM (inactive) | GI50 (HOP-18): > 100 µM (inactive) | GI50 (HT-29): > 100 µM (inactive) | GI50 (A549): > 100 µM (inactive) | GI50 (NCI-H23): > 100 µM (inactive) | GI50 (DLD-1): > 100 µM (inactive) | GI50 (SK-MEL-5): > 100 µM (inactive) | GI50 (SNB-75): > 100 µM (inactive) | GI50 (OVCAR-3): > 100 µM (inactive) | GI50 (NCI-H522): > 100 µM (inactive) | GI50 (DMS-114): 59.6 µM (inactive) | GI50 (HL-60): > 100 µM (inactive) | GI50 (SNB-78): > 100 µM (inactive) | GI50 (CAKI-1): > 100 µM (inactive) | GI50 (SF-539): > 100 µM (inactive) | GI50 (OVCAR-5): > 100 µM (inactive) | GI50 (KM-20L2): > 100 µM (inactive) | GI50 (RXF 393): > 100 µM (inactive)

COc1ccc2cc3n(c2c1)CCc1cc(OC)c(OC)cc1-3
GI50 (HOP-62): > 100 µM (inactive) | GI50 (LOX IMVI): > 100 µM (inactive) | GI50 (DMS-273): > 100 µM (inactive) | GI50 (HOP-92): > 100 µM (inactive) | GI50 (IGROV-1): > 100 µM (inactive) | GI50 (NCI-H460): > 100 µM (inactive) | GI50 (SW-620): > 100 µM (inactive) | GI50 (ACHN): > 100 µM (inactive) | GI50 (KM12): > 100 µM (inactive) | GI50 (NCI-H226): > 100 µM (inactive) | GI50 (MOLT-4): > 100 µM (inactive) | GI50 (SF-268): > 100 µM (inactive) | GI50 (UACC-257): 92.3 µM (inactive) | GI50 (U-251): 77.1 µM (inactive) | GI50 (SF-295): 51.2 µM (inactive) | GI50 (SNB-19): > 100 µM (inactive) | GI50 (RXF 631): > 100 µM (inactive) | GI50 (OVCAR-8): > 100 µM (inactive) | GI50 (786-0): > 100 µM (inactive) | GI50 (UACC-62): 71.8 µM (inactive) | GI50 (EKVX): > 100 µM (inactive) | GI50 (CCRF-CEM): > 100 µM (inactive) | GI50 (COLO 205): > 100 µM (inactive) | GI50 (M19-MEL): > 100 µM (inactive) | GI50 (LXFL 529): > 100 µM (inactive) | GI50 (SN12C): > 100 µM (inactive) | GI50 (SK-MEL-2): > 100 µM (inactive) | GI50 (OVCAR-4): 45.9 µM (inactive) | GI50 (TK-10): > 100 µM (inactive) | GI50 (SK-OV-3): > 100 µM (inactive) | GI50 (UO-31): > 100 µM (inactive) | GI50 (HCC 2998): > 100 µM (inactive) | GI50 (SK-MEL-28): > 100 µM (inactive) | GI50 (XF498): > 100 µM (inactive) | GI50 (HOP-18): > 100 µM (inactive) | GI50 (HT-29): > 100 µM (inactive) | GI50 (A549): > 100 µM (inactive) | GI50 (NCI-H23): > 100 µM (inactive) | GI50 (K562): > 100 µM (inactive) | GI50 (DLD-1): > 100 µM (inactive) | GI50 (NCI-H522): > 100 µM (inactive) | GI50 (A498): 28.4 µM (inactive) | GI50 (DMS-114): > 100 µM (inactive) | GI50 (HL-60): > 100 µM (inactive) | GI50 (SNB-78): > 100 µM (inactive) | GI50 (CAKI-1): > 100 µM (inactive) | GI50 (SF-539): > 100 µM (inactive) | GI50 (KM-20L2): > 100 µM (inactive) | GI50 (RXF 393): > 100 µM (inactive)
